The target in this data set is NOG. The data set is described as follows: reporter assay of Huesken 2005. The settings on record: siRNA. For orientation: Reporter assays use an easily measured gene product as a stand-in for the process of interest.

Oligonucleotides are written 5' to 3', each unit as a sugar letter and its base; * is a phosphorothioate linkage, no mark a phosphodiester; rarer units and linkages stand in square brackets, end groups in braces. Plain capitals give the bases only. d = 2'-deoxy (DNA); r = 2'-OH (RNA)
Also: test concentration or dose not given here.

Turning to “sense rCrArArGrGrArArArArGrGrArUrCrUrGrArArCdTdT / antisense rGrUrUrCrArGrArUrCrCrUrUrUrUrCrCrUrUrGdGdG”, the normalised inhibition (eCFP-eYFP dual reporter) came to 95.1%.

With “sense rGrArCrCrCrArGrGrCrUrUrCrArUrGrGrCrCrAdTdT / antisense rUrGrGrCrCrArUrGrArArGrCrCrUrGrGrGrUrCdGdT”, the normalised inhibition (eCFP-eYFP dual reporter) turned out to be 82.6%.

For the substance “sense rCrUrGrGrCrGrGrArGrCrUrGrGrArCrCrArGrCdTdT / antisense rGrCrUrGrGrUrCrCrArGrCrUrCrCrGrCrCrArGdGdT”, the normalised inhibition (eCFP-eYFP dual reporter) was 58.7%. Under “sense rUrArCrGrCrGrUrGrGrArArCrGrArCrCrUrGrGdTdT / antisense rCrCrArGrGrUrCrGrUrUrCrCrArCrGrCrGrUrAdCdA” stands 51.8%; under “sense rUrCrCrGrCrCrCrGrGrCrArCrCrCrArGrCrGrAdTdT / antisense rUrCrGrCrUrGrGrGrUrGrCrCrGrGrGrCrGrGrAdTdG”, 72%.

As for “sense rGrGrCrArUrGrGrUrGrUrGrCrArArGrCrCrGrUdTdT / antisense rArCrGrGrCrUrUrGrCrArCrArCrCrArUrGrCrCdCdT”, the normalised inhibition (eCFP-eYFP dual reporter) amounted to 79.1%. On to “sense rGrCrUrGrCrGrGrUrGrGrCrGrCrUrGrUrCrArGdTdT / antisense rCrUrGrArCrArGrCrGrCrCrArCrCrGrCrArGrCdAdC”, for which the normalised inhibition (eCFP-eYFP dual reporter) is 80.5%. For the substance “sense rCrCrArGrCrUrGrCrUrGrCrGrGrCrArGrCrGrGdTdT / antisense rCrCrGrCrUrGrCrCrGrCrArGrCrArGrCrUrGrGdTdC”, the normalised inhibition (eCFP-eYFP dual reporter) came out at 78.3%. As to “sense rGrGrGrCrArArGrArArGrCrArGrCrGrCrCrUrAdTdT / antisense rUrArGrGrCrGrCrUrGrCrUrUrCrUrUrGrCrCrCdTdG”, the normalised inhibition (eCFP-eYFP dual reporter) came out at 93.3%. “sense rGrCrCrCrGrGrCrArCrCrCrArGrCrGrArCrArAdTdT / antisense rUrUrGrUrCrGrCrUrGrGrGrUrGrCrCrGrGrGrCdGdG”: the normalised inhibition (eCFP-eYFP dual reporter) came out at 88.4%. The value for “sense rGrArArCrGrArCrCrUrGrGrGrCrArGrCrCrGrCdTdT / antisense rGrCrGrGrCrUrGrCrCrCrArGrGrUrCrGrUrUrCdCdA” was 59.1%; that for “sense rGrUrGrGrCrUrGrUrGrGrUrCrGrCrArGrArCrAdTdT / antisense rUrGrUrCrUrGrCrGrArCrCrArCrArGrCrCrArCdAdT” was 83.3%. Under “sense rArCrArUrUrCrUrGrCrCrCrCrGrUrGrCrUrGrUdTdT / antisense rArCrArGrCrArCrGrGrGrGrCrArGrArArUrGrUdCdT” stands 60%; under “sense rGrCrUrGrCrGrCrUrCrGrCrUrGrCrUrCrGrGrGdTdT / antisense rCrCrCrGrArGrCrArGrCrGrArGrCrGrCrArGrCdAdG”, 67.1%; under “sense rCrCrArCrArUrCrCrGrCrCrCrGrGrCrArCrCrCdTdT / antisense rGrGrGrUrGrCrCrGrGrGrCrGrGrArUrGrUrGrGdAdG”, 51.4%. The value for “sense rGrGrArArCrGrArCrCrUrGrGrGrCrArGrCrCrGdTdT / antisense rCrGrGrCrUrGrCrCrCrArGrGrUrCrGrUrUrCrCdAdC” was 51.5%.

Take “sense rGrUrCrCrArArGrUrCrCrGrUrGrCrArCrCrUrCdTdT / antisense rGrArGrGrUrGrCrArCrGrGrArCrUrUrGrGrArCdGdG”: the normalised inhibition (eCFP-eYFP dual reporter) was determined as 55.7%.

Consider “sense rUrCrGrCrArGrArCrArUrUrCrUrGrCrCrCrCrGdTdT / antisense rCrGrGrGrGrCrArGrArArUrGrUrCrUrGrCrGrAdCdC”, for which the normalised inhibition (eCFP-eYFP dual reporter) worked out at 47.6%. Under “sense rCrCrCrArGrCrGrArCrArArCrCrUrGrCrCrCrCdTdT / antisense rGrGrGrGrCrArGrGrUrUrGrUrCrGrCrUrGrGrGdTdG” stands 68.1%; under “sense rArUrGrGrUrGrUrGrCrArArGrCrCrGrUrCrCrAdTdT / antisense rUrGrGrArCrGrGrCrUrUrGrCrArCrArCrCrArUdGdC”, 86.2%. The value for “sense rGrCrGrArGrArUrCrArArArGrGrGrCrUrArGrAdTdT / antisense rUrCrUrArGrCrCrCrUrUrUrGrArUrCrUrCrGrCdTdC” was 96.7%; that for “sense rGrArCrCrUrGrGrGrCrArGrCrCrGrCrUrUrUrUdTdT / antisense rArArArArGrCrGrGrCrUrGrCrCrCrArGrGrUrCdGdT” was 77.1%; that for “sense rGrArUrCrArArArGrGrGrCrUrArGrArGrUrUrCdTdT / antisense rGrArArCrUrCrUrArGrCrCrCrUrUrUrGrArUrCdTdC” was 78.3%.

Turning to “sense rUrCrUrGrCrCrCrCrGrUrGrCrUrGrUrArCrGrCdTdT / antisense rGrCrGrUrArCrArGrCrArCrGrGrGrGrCrArGrAdAdT”, the normalised inhibition (eCFP-eYFP dual reporter) was found to be 61%. “sense rArCrUrArUrCrUrCrCrArCrArUrCrCrGrCrCrCdTdT / antisense rGrGrGrCrGrGrArUrGrUrGrGrArGrArUrArGrUdGdC”: the normalised inhibition (eCFP-eYFP dual reporter) was 52.8%. On to “sense rArGrGrGrCrArUrGrGrUrGrUrGrCrArArGrCrCdTdT / antisense rGrGrCrUrUrGrCrArCrArCrCrArUrGrCrCrCrUdCdG”, for which the normalised inhibition (eCFP-eYFP dual reporter) is 75.7%. Consider “sense rGrCrCrGrUrCrCrArArGrUrCrCrGrUrGrCrArCdTdT / antisense rGrUrGrCrArCrGrGrArCrUrUrGrGrArCrGrGrCdTdT”, for which the normalised inhibition (eCFP-eYFP dual reporter) amounted to 66.1%. For the substance “sense rCrArCrCrUrCrArCrGrGrUrGrCrUrGrCrGrGrUdTdT / antisense rArCrCrGrCrArGrCrArCrCrGrUrGrArGrGrUrGdCdA”, the normalised inhibition (eCFP-eYFP dual reporter) stood at 56.3%. Under “sense rGrArCrCrArGrCrUrGrCrUrGrCrGrGrCrArGrCdTdT / antisense rGrCrUrGrCrCrGrCrArGrCrArGrCrUrGrGrUrCdCdA” stands 55.2%; under “sense rCrCrUrArUrCrUrUrUrGrArCrCrCrCrArArGrGdTdT / antisense rCrCrUrUrGrGrGrGrUrCrArArArGrArUrArGrGdGdT”, 89.1%. As to “sense rCrArGrArCrCrCrUrArUrCrUrUrUrGrArCrCrCdTdT / antisense rGrGrGrUrCrArArArGrArUrArGrGrGrUrCrUrGdGdG”, the normalised inhibition (eCFP-eYFP dual reporter) was determined as 88.8%. Turning to “sense rArUrCrUrCrCrArCrArUrCrCrGrCrCrCrGrGrCdTdT / antisense rGrCrCrGrGrGrCrGrGrArUrGrUrGrGrArGrArUdAdG”, the normalised inhibition (eCFP-eYFP dual reporter) is 60.2%. Under “sense rArCrGrArCrCrUrGrGrGrCrArGrCrCrGrCrUrUdTdT / antisense rArArGrCrGrGrCrUrGrCrCrCrArGrGrUrCrGrUdTdC” stands 51.1%; under “sense rGrCrArGrCrCrGrCrUrUrUrUrGrGrCrCrGrCrGdTdT / antisense rCrGrCrGrGrCrCrArArArArGrCrGrGrCrUrGrCdCdC”, 46.4%. In the case of “sense rArCrCrUrCrArUrCrGrArArCrArCrCrCrArGrAdTdT / antisense rUrCrUrGrGrGrUrGrUrUrCrGrArUrGrArGrGrUdCdC”, the normalised inhibition (eCFP-eYFP dual reporter) is 102%.

Regarding “sense rCrArGrCrUrGrCrUrUrCrArGrUrArArGrCrGrCdTdT / antisense rGrCrGrCrUrUrArCrUrGrArArGrCrArGrCrUrGdCdC”, the normalised inhibition (eCFP-eYFP dual reporter) amounted to 56.5%. The value for “sense rUrCrArUrCrGrArArCrArCrCrCrArGrArCrCrCdTdT / antisense rGrGrGrUrCrUrGrGrGrUrGrUrUrCrGrArUrGrAdGdG” was 67.8%; that for “sense rGrCrUrUrCrArGrUrArArGrCrGrCrUrCrGrUrGdTdT / antisense rCrArCrGrArGrCrGrCrUrUrArCrUrGrArArGrCdAdG” was 84.7%; that for “sense rGrArCrGrCrUrGrCrUrGrCrGrCrUrCrGrCrUrGdTdT / antisense rCrArGrCrGrArGrCrGrCrArGrCrArGrCrGrUrCdTdC” was 70.9%. Under “sense rArUrCrCrGrCrCrCrGrGrCrArCrCrCrArGrCrGdTdT / antisense rCrGrCrUrGrGrGrUrGrCrCrGrGrGrCrGrGrArUdGdT” stands 42.7%; under “sense rGrArUrGrUrGrGrCrUrGrUrGrGrUrCrGrCrArGdTdT / antisense rCrUrGrCrGrArCrCrArCrArGrCrCrArCrArUrCdTdG”, 81.7%. Regarding “sense rCrUrGrArArCrGrArGrArCrGrCrUrGrCrUrGrCdTdT / antisense rGrCrArGrCrArGrCrGrUrCrUrCrGrUrUrCrArGdAdT”, the normalised inhibition (eCFP-eYFP dual reporter) was 46.9%. “sense rArGrArGrUrUrCrUrCrCrGrArGrGrGrCrUrUrGdTdT / antisense rCrArArGrCrCrCrUrCrGrGrArGrArArCrUrCrUdAdG”: the normalised inhibition (eCFP-eYFP dual reporter) worked out at 55.1%. Regarding “sense rCrCrCrGrUrGrCrUrGrUrArCrGrCrGrUrGrGrAdTdT / antisense rUrCrCrArCrGrCrGrUrArCrArGrCrArCrGrGrGdGdC”, the normalised inhibition (eCFP-eYFP dual reporter) was 60.3%. Under “sense rArGrCrArArGrArArGrCrUrGrCrGrGrArGrGrAdTdT / antisense rUrCrCrUrCrCrGrCrArGrCrUrUrCrUrUrGrCrUdTdA” stands 97.7%; under “sense rGrGrCrGrGrCrCrArGrCrArCrUrArUrCrUrCrCdTdT / antisense rGrGrArGrArUrArGrUrGrCrUrGrGrCrCrGrCrCdGdG”, 87.4%; under “sense rGrGrCrArArGrArArGrCrArGrCrGrCrCrUrArAdTdT / antisense rUrUrArGrGrCrGrCrUrGrCrUrUrCrUrUrGrCrCdCdT”, 91.3%. The value for “sense rGrUrGrCrArArGrCrCrGrUrCrCrArArGrUrCrCdTdT / antisense rGrGrArCrUrUrGrGrArCrGrGrCrUrUrGrCrArCdAdC” was 75.4%. The value for “sense rGrGrCrUrUrCrArUrGrGrCrCrArCrCrUrCrGrCdTdT / antisense rGrCrGrArGrGrUrGrGrCrCrArUrGrArArGrCrCdTdG” was 64.6%.

The record behind these values is the OligoGym collection.
